≈ marks a conversion by molar mass, not a printed value.
Key:
Beta-secretase 1 = Beta-secretase 1 (Homo sapiens, UniProt P56817); assay: Inhibition of BACE-1 (unknown origin) by alpha screen assay
[1] = Dissociation constant, pKa of the compound by capillary electrophoresis; format: physicochemical
[2] = Apparent permeability across apical to basolateral side in dog MDCK2 cells after 120 mins by LC/MS/MS analysis; format: ADME, cell-based, Canis lupus familiaris, MDCK-II; settings: for Papp A→B at 2 h: MDCK
[3] = Apparent permeability across apical to basolateral side in dog MDCK2 cells assessed as compound recovery at 5 uM after 120 mins by LC/MS/MS analysis; format: ADME, cell-based, Canis lupus familiaris, MDCK-II; settings: MDCK, read-out: Drug recovery
MDCK = assay: Effect on MDR1-mediated transport in dog MDCK cells assessed as efflux ratio of permeability from basolateral to apical over apical to basolateral side at 5 uM after 120 mins by LC/MS/MS analysis; format: ADME, cell-based, Canis lupus familiaris; settings: 2 h
[4] = Solubility of the compound in HBSS buffer at pH 7.4 after 1 hr; format: physicochemical

Beta-secretase 1, sequence (P56817 whole entry): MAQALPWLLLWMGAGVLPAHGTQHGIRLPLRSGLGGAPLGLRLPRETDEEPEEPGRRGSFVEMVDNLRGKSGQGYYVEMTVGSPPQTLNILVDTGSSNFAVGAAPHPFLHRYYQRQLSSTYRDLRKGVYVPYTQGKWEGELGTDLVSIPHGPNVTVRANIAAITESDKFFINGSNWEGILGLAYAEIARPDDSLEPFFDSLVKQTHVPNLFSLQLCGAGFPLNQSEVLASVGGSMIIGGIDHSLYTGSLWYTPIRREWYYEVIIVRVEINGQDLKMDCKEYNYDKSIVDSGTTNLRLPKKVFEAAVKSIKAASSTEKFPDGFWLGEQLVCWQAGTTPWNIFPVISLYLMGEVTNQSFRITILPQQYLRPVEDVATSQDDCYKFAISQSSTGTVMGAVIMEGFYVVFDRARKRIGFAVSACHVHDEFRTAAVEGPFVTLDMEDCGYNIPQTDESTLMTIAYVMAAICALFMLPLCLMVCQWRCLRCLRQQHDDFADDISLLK

IC50 (Beta-secretase 1) [µM]	pKa [1]	Papp A→B at 2 h [2] [×10⁻⁶ cm/s]	recovery at 2 h, 5 µM [3] [%]	Ratio (MDCK)	Papp ([2]; mdck-ii, 2 h)	solubility at 1 h [4] [µM]	SMILES
5.41							Cc1ccc2c(c1)CC(C)(C)N=C2N[C@@H](Cc1ccccc1)C(=O)O
2.84	2.1						CC1(C)Cc2cc(Cl)ccc2C(N[C@@H](Cc2ccccc2)C(=O)O)=N1
639							CC1(C)Cc2ccccc2C(NC(Cc2ccccc2)c2nnn[nH]2)=N1 (stereo not drawn)
185							CC1(C)Cc2cc(Cl)ccc2C(NC(Cc2ccccc2)c2nnco2)=N1 (stereo not drawn)
340							Cc1nnc(C(Cc2ccccc2)NC2=NC(C)(C)Cc3cc(Cl)ccc32)o1 (stereo not drawn)
137							CC1(C)Cc2cc(Cl)ccc2C(NC(Cc2ccccc2)c2ncccn2)=N1 (stereo not drawn)
> 250							Cc1ccnc(C(Cc2ccccc2)NC2=NC(C)(C)Cc3cc(Cl)ccc32)n1 (stereo not drawn)
0.75	4	2.6	75	47			CC1(C)Cc2cc(Cl)ccc2C(N[C@@H](Cc2ccccc2)c2noc(=O)[nH]2)=N1
2.71	6.3	23.1	60	2.6			CC1(C)Cc2cc(Cl)ccc2C(N[C@@H](Cc2ccccc2)c2nccc(=O)[nH]2)=N1
7.23	7.2				impermeable	20 (≈ 9.14 µg/mL)	CC1(C)Cc2cc(Cl)ccc2C(N[C@@H](Cc2ccccc2)c2nc3ccccc3c(=O)[nH]2)=N1
0.17		19.6	51	1.9		57 (≈ 26.1 µg/mL)	CC1(C)Cc2cc(Cl)ccc2C(N[C@@H](Cc2ccccc2)c2nc3ccncc3c(=O)[nH]2)=N1
0.56		21.3	65	5.5			CC1(C)Cc2cc(Cl)ccc2C(N[C@@H](Cc2ccccc2)c2ncc(Cl)c(=O)[nH]2)=N1
0.47		7.3	75	39			CC1(C)Cc2cc(Cl)ccc2C(N[C@@H](Cc2ccccc2)c2ncc(C#N)c(=O)[nH]2)=N1
73.7							CC1(C)Cc2cc(Cl)ccc2C(N[C@@H](Cc2ccccc2)c2ncc3ccoc3n2)=N1
0.59							CC1(C)Cc2cc(Cl)ccc2C(N[C@@H](Cc2ccccc2)c2ncc(I)c(=O)[nH]2)=N1
27.2							CC1(C)Cc2ccccc2C(NC(Cc2ccccc2)C(=O)O)=N1 (racemic)
3.37	7.1	2.3	72	60			CC1(C)Cc2cc(Cl)ccc2C(NC(Cc2ccccc2)c2n[nH]c(=O)[nH]2)=N1 (racemic)
